# Results as given in US20230309556A1, “HERBICIDAL COMPOSITIONS RELATED TO OXALOACETATE AND METHODS AND USE THEREOF” (priority 2021, published 2023).
# Tested on: plants
# Experiment: general screening of the herbicidal effect
# Format: in vivo
# Conditions: 10% w/w; compared with Roundup RTU and Bayer Advanced at 10% and 100% Label Rate; results shown in FIG. 1
# Method: A general screening of the herbicidal effect of the following compounds was carried out: Bayer Advanced (100% Label Rate), Bayer Advanced (10% Lable Rate), UTC, Diethyl Oxalacetate (10% w/w), Roundup, rtu (10% Label Rate) and Roundup RTU (100% Label Rate).
compound,measurement,value
CCOC(=O)CC(=O)C(=O)OCC [Diethyl Oxalacetate],herbicidal activity,comparable to well-known herbicide products such as Roundup and Bayer Advanced
